Data from publication PMC10781691, “Vertical pathway inhibition of receptor tyrosine kinases and BAD with synergistic efficacy in triple negative breast cancer” (NPJ Precision Oncology, 2024).
Where two headings read alike, the source gives them in different places.

Legend:
[1] = system: BAD phosphorylation at Ser99; assay: Western blot of BAD phosphorylation at Ser99 in TNBC cells; format: cell-based, human; details: MDA-MB-231 and BT549 cells; for level of pBADSer99/BAD: 1 μM
[2] = system: 4T1-luciferase homografts; assay: Orthotopic syngeneic homograft, combination study; format: in vivo; details: BALB/c mice, day 16; NCK 20 mg/kg, OSI 50 mg/kg, CRI 50 mg/kg
Experimental: In vivo bioluminescent imaging was performed to determine the incidence and metastatic burden of luciferase-labeled 4T1 cells. Mice were injected i.p. with 10 mg/ml of D-luciferin (Gold Biotechnology, MO, USA) and imaged using a PerkinElmer IVIS Spectrum system. PDX were generated as previously described by transplanting fresh fragments orthotopically into 8-week-old female nonobese diabetic (NOD)/severe combined immunodeficient (SCID) mice (Beijing Vital River Laboratory Animal Technology Co., Beijing, China) (P1, passage 1)[40]. The P1 xenografts were then fragmented, digested into single-cell suspension and implanted into mammary fat pad (100 μL PBS containing growth factor reduced 50% Matrigel) of NOD/SCID mice. Once orthotopic xenografts reached an approximate size of 100 mm^3, the mice were randomly divided into three groups (n = 8) for single drug studies and six groups (n = 6) for combination studies and Kaplan-Meier (KM) analyses. […] Animal body weight and xenograft size were measured daily using an electronic balance and a digital caliper, respectively. Xenograft volume (mm^3) was calculated by using the formula: 0.52 × length × [width]^2. Complete response (CR) was achieved if the average xenograft volume for the treatment group was unable to be determined for two or more consecutive measurements. Partial response (PR) was achieved if the average xenograft volume reduced to <50 mm^3 for two or more consecutive measurements. After 3-week drug treatment, all mice were sacrificed by CO2 inhalation. Tumor and vital organs were weighed and isolated for further analysis. IHC analysis of xenograft histology sections and quantitative polymerase chain reaction (qPCR) were performed as previously described. […]
model was measured every day and calculated by using the formula: 0.52 × length × [width]2.
The animal weight of each treatment group is indicated. […]
treatment group after sacrifice on the 15th day of treatment. (C) Bioluminescence of homografts from mice orthotopically implanted with 4T1-luciferase cells. (D) Resected homografts from each treatment group.
(F) Histological analyses and IRS scoring of pBAD at Ser99, BAD, MKI67, and TUNEL staining in homografts. Scale bar, 20 µm. […]
kidney weights (%, organ body index) and colon length of BALB/c mice administrated with […]
represent means ± SD ( n=6).*P < 0.05, **P < 0.01, and ***P < 0.001.

[3] = system: USTC-0 PDX; assay: TNBC patient-derived xenograft; format: in vivo, NOD/SCID mice; details: for survival of PDX-bearing mice / Median survival: USTC-0; for survival of PDX-bearing mice: single agents vs vehicle, combinations vs OSI-930 or Crizotinib alone; for Median survival: vehicle 25.5
Experimental: (§1) The effect of drug treatments on two patient-derived xenograft (PDX) models of TNBC, USTC-0 and USTC-1 were next examined. The use of the USTC-1 PDX was previously reported.
(§2) In vivo bioluminescent imaging was performed to determine the incidence and metastatic burden of luciferase-labeled 4T1 cells. Mice were injected i.p. with 10 mg/ml of D-luciferin (Gold Biotechnology, MO, USA) and imaged using a PerkinElmer IVIS Spectrum system. PDX were generated as previously described by transplanting fresh fragments orthotopically into 8-week-old female nonobese diabetic (NOD)/severe combined immunodeficient (SCID) mice (Beijing Vital River Laboratory Animal Technology Co., Beijing, China) (P1, passage 1)[40]. The P1 xenografts were then fragmented, digested into single-cell suspension and implanted into mammary fat pad (100 μL PBS containing growth factor reduced 50% Matrigel) of NOD/SCID mice. Once orthotopic xenografts reached an approximate size of 100 mm^3, the mice were randomly divided into three groups (n = 8) for single drug studies and six groups (n = 6) for combination studies and Kaplan-Meier (KM) analyses. […] Animal body weight and xenograft size were measured daily using an electronic balance and a digital caliper, respectively. Xenograft volume (mm^3) was calculated by using the formula: 0.52 × length × [width]^2. Complete response (CR) was achieved if the average xenograft volume for the treatment group was unable to be determined for two or more consecutive measurements. Partial response (PR) was achieved if the average xenograft volume reduced to <50 mm^3 for two or more consecutive measurements. After 3-week drug treatment, all mice were sacrificed by CO2 inhalation. Tumor and vital organs were weighed and isolated for further analysis. IHC analysis of xenograft histology sections and quantitative polymerase chain reaction (qPCR) were performed as previously described. […] For PDX, xenograft growth was monitored daily by measurement of the xenograft volume until mice humane endpoint ( ~ 1000 mm^3).

[4] = system: USTC-1 PDX; assay: TNBC patient-derived xenograft; format: in vivo, NOD/SCID mice; details: for Median survival: USTC-1, vehicle 22.5
Experimental: as §1, §2

[5] = system: MAPK and PI3K/AKT pathways; assay: Western blot of PI3K/AKT and MAPK pathway proteins; format: cell-based, human
Experimental: Next, western blot analyses were performed to determine potential alteration in expression or activity of the target proteins along the MAPK and PI3K/AKT pathways. […] . […] CI analysis method.

[6] = system: MDA-MB-231 cells
[7] = system: MDA-MB-231 cells; assay: Foci formation (crystal violet); details: MDA-MB-231, 5 μM each
[8] = system: BT549 cells; assay: Foci formation (crystal violet); details: BT549, 5 μM each
[9] = Balb/c-nude mice, day 22, NCK 20 mg/kg, OSI 50 mg/kg, CRI 50 mg/kg

Structure (SMILES)	level of pBADSer99/BAD [1]	Colon Length [2] [cm]	Relative Kidney Weight [2] [%]	PDX xenograft volume ([3]; USTC-0, 21 days treatment)	survival of PDX-bearing mice [3]	Median survival [3] [days]	PDX xenograft volume ([4]; USTC-1, 21 days treatment)	Median survival [4] [days]	phosphorylated and total proteins of MAPK and PI3K/AKT pathways ([5]; BT549, 1 μM)	phosphorylated and total proteins of MAPK and PI3K/AKT pathways ([5]; MDA-MB-231, 1 μM)	micro-metastatic nodules in lung (H&E) vs vehicle ([6]; MDA-MB-231 metastasis model)	2D foci formation [7]	2D foci formation [8]	further results
Oc1ccccc1C(c1cccnc1)N1CCN(c2cccc(Cl)c2Cl)CC1 (stereo not drawn) [NCK, 2-((4-(2,3-dichlorophenyl)piperazin-1-yl)(pyridin-3-yl)methyl) phenol]	significantly decreased the level of pBADSer99/BAD	9.02±1.54	1.40±0.16	significantly reduced the xenograft volume	markedly extended the survival	42.0	significantly reduced the xenograft volume	34.5	did not affect	did not affect	significantly reduced lung colonization	significantly attenuated the capacity for foci formation	significantly attenuated the capacity for foci formation	inhibition of BAD phosphorylation at Ser99 (decreased pBADSer99/BAD ratio), effective concentration ([1]; vs DMSO): ≥ 0.1 μM; Relative Heart Weight [2]: 0.61±0.11%; Relative Liver Weight [2]: 4.98±0.21%; Relative Lung Weight [2]: 0.87±0.11%; Relative Spleen Weight [2]: 2.24±0.40%; reduction in xenograft burden vs vehicle ([3]; USTC-0, 21 days treatment): 66.0%; reduction in xenograft burden vs vehicle ([4]; USTC-1, 21 days treatment): 45.6%; Relative Heart Weight [6, 9]: 0.66±0.08%; Relative Kidney Weight [6, 9]: 1.72±0.18%; Relative Liver Weight [6, 9]: 6.57±0.93%; Relative Lung Weight [6, 9]: 0.82±0.05%; Relative Spleen Weight [6, 9]: 0.75±0.13%; Relative Lung Weight ([6]; MDA-MB-231 metastasis model, vehicle 0.19 ± 0.02 g): 0.17 ± 0.01 g
O=C(Nc1ccc(OC(F)(F)F)cc1)c1sccc1NCc1ccnc2ccccc12 [OSI-930]	significantly decreased the level of pBADSer99/BAD	9.33±1.26	1.34±0.02	significantly reduced the xenograft volume	markedly extended the survival	34.0	significantly reduced the xenograft volume	29.5	significantly reduced the level of p-AKT (Ser473)/AKT	significantly inhibited the PI3K/AKT pathway	significantly reduced lung colonization	significantly attenuated the capacity for foci formation	significantly attenuated the capacity for foci formation	
